Test results: patent US9073855B2, “BCL-2 selective apoptosis-inducing agents for the treatment of cancer and immune diseases” (AbbVie Inc., priority 2008, dated 2015)

Legend:
[1] = biological target: GST-Bcl-2 (Homo sapiens, UniProt P10415); assay: TR-FRET binding assay, GST-Bcl-2 with F-Bak peptide probe; conditions: TR-FRET Binding Affinity, GST-Bcl-2, F-Bak peptide probe
How it was run: (§1)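 Displacement of a fluorescein-labelled Bak peptide from the GST-tagged protein was followed by time-resolved FRET with a terbium anti-GST donor after 3 h incubation at room temperature. Inhibition constants were calculated with Wang's equation.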

[2] = biological target: GST-Bcl-XL (Homo sapiens, UniProt Q07817); assay: TR-FRET binding assay, GST-Bcl-XL with F-Bak peptide probe; conditions: TR-FRET Binding Affinity, GST-Bcl-XL, F-Bak peptide probe
How it was run: as §1

[3] = tested on: FL5.12/Bcl-2 cells; assay: FL5.12/Bcl-2 cell viability assay under IL-3 withdrawal (CellTitre Glo); format: cell-based, murine; conditions: Mus musculus, IL-3 withdrawn 48 hrs, then 24 hrs with compound
How it was run: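 Cells (1×10^6/ml) are washed, resuspended in medium lacking WEHI-3B conditioned medium as IL-3 source, and held 48 hrs. Compounds are then added at a range of concentrations for 24 hrs, after which CellTitre Glo reports viability.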

Chain of GST-Bcl-2 (P10415 whole entry): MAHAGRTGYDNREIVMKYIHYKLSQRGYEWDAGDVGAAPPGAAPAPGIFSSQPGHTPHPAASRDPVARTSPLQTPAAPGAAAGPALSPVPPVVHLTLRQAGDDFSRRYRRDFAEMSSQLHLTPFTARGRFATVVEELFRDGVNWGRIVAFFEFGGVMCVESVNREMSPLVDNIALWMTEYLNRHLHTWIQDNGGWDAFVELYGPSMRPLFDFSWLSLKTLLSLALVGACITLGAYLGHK
Chain of GST-Bcl-XL (Q07817 whole entry): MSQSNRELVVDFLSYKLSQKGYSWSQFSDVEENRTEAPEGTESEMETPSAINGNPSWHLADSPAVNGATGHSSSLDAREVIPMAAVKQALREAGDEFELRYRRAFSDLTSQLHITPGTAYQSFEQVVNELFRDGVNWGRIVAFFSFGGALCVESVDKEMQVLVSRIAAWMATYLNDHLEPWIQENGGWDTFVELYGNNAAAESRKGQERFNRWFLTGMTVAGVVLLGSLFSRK

SMILES: CC1(C)CCC(c2ccc(Cl)cc2)=C(CN2CCN(c3ccc(C(=O)NS(=O)(=O)c4ccc(NCC5CCOCC5)c([N+](=O)[O-])c4)c(Oc4ccc5[nH]ccc5c4)c3)CC2)C1 [Example 290, 4-(4-{[2-(4-chlorophenyl)-5,5-dimethylcyclohex-1-en-1-yl]methyl}piperazin-1-yl)-2-(1H-indol-5-yloxy)-N-({3-nitro-4-[(tetrahydro-2H-pyran-4-ylmethyl)amino]phenyl}sulfonyl)benzamide]
- Ki [1]: 0.365 nM
- Ki [2]: > 660 nM
- EC50 [3]: 44.7 nM

SMILES: CC1(C)CCC(CN2CCN(c3ccc(C(=O)NS(=O)(=O)c4ccc(NCC5(O)CCCCC5)c([N+](=O)[O-])c4)c(Oc4ccc5[nH]ccc5c4)c3)CC2)=C(c2ccc(Cl)cc2)C1 [Example 238, 4-(4-{[2-(4-chlorophenyl)-4,4-dimethylcyclohex-1-en-1-yl]methyl}piperazin-1-yl)-N-[(4-{[(1-hydroxycyclohexyl)methyl]amino}-3-nitrophenyl)sulfonyl]-2-(1H-indol-5-yloxy)benzamide]
- Ki [1]: 0.43 nM
- Ki [2]: > 660 nM
- EC50 [3]: 59 nM

SMILES: O=C(NS(=O)(=O)c1ccc(NC2CCN(C3CCOCC3)CC2)c([N+](=O)[O-])c1)c1ccc(N2CCN(Cc3ccc(C(F)(F)F)cc3-c3ccc(Cl)cc3)CC2)cc1Oc1ccc2[nH]ccc2c1 [Example 358, 4-(4-{[4′-chloro-5-(trifluoromethyl)-1,1′-biphenyl-2-yl]methyl}piperazin-1-yl)-2-(1H-indol-5-yloxy)-N-({3-nitro-4-[(1-tetrahydro-2H-pyran-4-ylpiperidin-4-yl)amino]phenyl}sulfonyl)benzamide]
- Ki [1]: 5.42 nM
- Ki [2]: > 660 nM
- EC50 [3]: > 500 nM

SMILES: CC1(C)CCC(CN2CCN(c3ccc(C(=O)NS(=O)(=O)c4cnc(NCC5CCOCC5)c(Br)c4)c(Oc4ccc5[nH]ccc5c4)c3)CC2)=C(c2ccc(Cl)cc2)C1 [Example 350, N-({5-bromo-6-[(tetrahydro-2H-pyran-4-ylmethyl)amino]pyridin-3-yl}sulfonyl)-4-(4-{[2-(4-chlorophenyl)-4,4-dimethylcyclohex-1-en-1-yl]methyl}piperazin-1-yl)-2-(1H-indol-5-yloxy)benzamide]
- Ki [1]: 5.97 nM
- Ki [2]: > 660 nM
- EC50 [3]: 311 nM

SMILES: CC(C1=C(c2ccc(Cl)cc2)CC(C)(C)CC1)N1CCN(c2ccc(C(=O)NS(=O)(=O)c3ccc(NN4CCN(C)CC4)c([N+](=O)[O-])c3)c(Oc3ccc4[nH]ccc4c3)c2)CC1 (stereo not drawn) [Example 254, 4-(4-{1-[2-(4-chlorophenyl)-4,4-dimethylcyclohex-1-en-1-yl]ethyl}piperazin-1-yl)-2-(1H-indol-5-yloxy)-N-({4-[(4-methylpiperazin-1-yl)amino]-3-nitrophenyl}sulfonyl)benzamide]
- Ki [1]: 0.126 nM
- Ki [2]: 53.3 nM
- EC50 [3]: 16.9 nM

SMILES: Cn1ncc(-c2ccc(Cl)cc2)c1CN1CCN(c2ccc(C(=O)NS(=O)(=O)c3ccc(NCC4CCOCC4)c([N+](=O)[O-])c3)c(Oc3ccc4[nH]ccc4c3)c2)CC1 [Example 285, 4-(4-{[4-(4-chlorophenyl)-1-methyl-1H-pyrazol-5-yl]methyl}piperazin-1-yl)-2-(1H-indol-5-yloxy)-N-({3-nitro-4-[(tetrahydro-2H-pyran-4-ylmethyl)amino]phenyl}sulfonyl)benzamide]
- Ki [1]: 6.99 nM
- Ki [2]: > 660 nM
- EC50 [3]: > 500 nM

SMILES: COCCN1CCC(Nc2ccc(S(=O)(=O)NC(=O)c3ccc(N4CCN(CC5=C(c6ccc(Cl)cc6)CC(C)(C)CC5)CC4)cc3Oc3ccc4[nH]ccc4c3)cc2[N+](=O)[O-])CC1 [Example 189, 4-(4-{[2-(4-chlorophenyl)-4,4-dimethylcyclohex-1-en-1-yl]methyl}piperazin-1-yl)-2-(1H-indol-5-yloxy)-N-[(4-{[1-(2-methoxyethyl)piperidin-4-yl]amino}-3-nitrophenyl)sulfonyl]benzamide]
- Ki [1]: 0.144 nM
- Ki [2]: 51.7 nM
- EC50 [3]: 14.9 nM

SMILES: COC1CCC(Nc2ccc(S(=O)(=O)NC(=O)c3ccc(N4CCN(CC5=C(c6ccc(Cl)cc6)CC(C)(C)CC5)CC4)cc3Oc3ccc4[nH]ccc4c3)cc2[N+](=O)[O-])CC1 (stereo not drawn) [Example 265, 4-(4-{[2-(4-chlorophenyl)-4,4-dimethylcyclohex-1-en-1-yl]methyl}piperazin-1-yl)-2-(1H-indol-5-yloxy)-N-({4-[(4-methoxycyclohexyl)amino]-3-nitrophenyl}sulfonyl)benzamide]
- Ki [1]: 1.7 nM
- Ki [2]: > 660 nM
- EC50 [3]: 244 nM

SMILES: CN1CC(Nc2ccc(S(=O)(=O)NC(=O)c3ccc(N4CCN(CC5=C(c6ccc(Cl)cc6)CC(C)(C)CC5)CC4)cc3Oc3ccc4[nH]ccc4c3)cc2[N+](=O)[O-])CC1=O (stereo not drawn) [Example 281, 4-(4-{[2-(4-chlorophenyl)-4,4-dimethylcyclohex-1-en-1-yl]methyl}piperazin-1-yl)-2-(1H-indol-5-yloxy)-N-({4-[(1-methyl-5-oxopyrrolidin-3-yl)amino]-3-nitrophenyl}sulfonyl)benzamide]
- Ki [1]: 0.076 nM
- Ki [2]: 119 nM
- EC50 [3]: 60.2 nM

SMILES: O=C(NS(=O)(=O)c1ccc(NCC2CCOCC2)c([N+](=O)[O-])c1)c1ccc(N2CCN(CC3=C(c4ccc(Cl)cc4)CCC(N4CCOCC4)C3)CC2)cc1Oc1ccc2[nH]ccc2c1 (stereo not drawn) [Example 249, 4-(4-{[2-(4-chlorophenyl)-5-morpholin-4-ylcyclohex-1-en-1-yl]methyl}piperazin-1-yl)-2-(1H-indol-5-yloxy)-N-({3-nitro-4-[(tetrahydro-2H-pyran-4-ylmethyl)amino]phenyl}sulfonyl)benzamide]
- Ki [1]: 0.09 nM
- Ki [2]: > 660 nM
- EC50 [3]: 41.2 nM

SMILES: CO[C@H]1CC[C@@H](CNc2ccc(S(=O)(=O)NC(=O)c3ccc(N4CCN(CC5=C(c6ccc(Cl)cc6)CC(C)(C)CC5)CC4)cc3Oc3ccc4[nH]ccc4c3)cc2[N+](=O)[O-])CC1 [Example 313, Cis-4-(4-{[2-(4-chlorophenyl)-4,4-dimethylcyclohex-1-en-1-yl]methyl}piperazin-1-yl)-2-(1H-indol-5-yloxy)-N-[(4-{[(4-methoxycyclohexyl)methyl]amino}-3-nitrophenyl)sulfonyl]benzamide]
- Ki [1]: 0.044 nM
- Ki [2]: 66 nM
- EC50 [3]: 82.9 nM

SMILES: CC1(C)CCC(CN2CCN(c3ccc(C(=O)NS(=O)(=O)c4ccc(N[C@H]5CC[C@H](N6CCOCC6)CC5)c([N+](=O)[O-])c4)c(Oc4cccc5[nH]ccc45)c3)CC2)=C(c2ccc(Cl)cc2)C1 [Example 204, Trans-4-(4-{[2-(4-chlorophenyl)-4,4-dimethylcyclohex-1-en-1-yl]methyl}piperazin-1-yl)-2-(1H-indol-4-yloxy)-N-({4-[(4-morpholin-4-ylcyclohexyl)amino]-3-nitrophenyl}sulfonyl)benzamide]
- Ki [1]: 0.145 nM
- Ki [2]: 42.3 nM
- EC50 [3]: 27.4 nM

SMILES: CC1(C)CCC(CN2CCN(c3ccc(C(=O)NS(=O)(=O)c4ccc(NC5CCN(Cc6nccs6)CC5)c([N+](=O)[O-])c4)c(Oc4ccc5[nH]ccc5c4)c3)CC2)=C(c2ccc(Cl)cc2)C1 [Example 230, 4-(4-{[2-(4-chlorophenyl)-4,4-dimethylcyclohex-1-en-1-yl]methyl}piperazin-1-yl)-2-(1H-indol-5-yloxy)-N-[(3-nitro-4-{[1-(1,3-thiazol-2-ylmethyl)piperidin-4-yl]amino}phenyl)sulfonyl]benzamide]
- Ki [1]: 8.82 nM
- Ki [2]: > 660 nM
- EC50 [3]: 178 nM

SMILES: CN(C)CCOc1ccc(-c2ccc(Cl)cc2)c(CN2CCN(c3ccc(C(=O)NS(=O)(=O)c4ccc(NN5CCN(C)CC5)c([N+](=O)[O-])c4)c(Oc4cccc5[nH]ccc45)c3)CC2)c1 [Example 274, 4-[4-({4′-chloro-4-[2-(dimethylamino)ethoxy]-1,1′-biphenyl-2-yl}methyl)piperazin-1-yl]-2-(1H-indol-4-yloxy)-N-({4-[(4-methylpiperazin-1-yl)amino]-3-nitrophenyl}sulfonyl)benzamide]
- Ki [1]: 0.135 nM
- Ki [2]: 32.9 nM
- EC50 [3]: 155 nM

SMILES: CC1(C)CCC(CN2CCN(c3ccc(C(=O)NS(=O)(=O)c4ccc(NC5CCN(S(C)(=O)=O)CC5)c([N+](=O)[O-])c4)c(Oc4ccc5[nH]ccc5c4)c3)CC2)=C(c2ccc(Cl)cc2)C1 [Example 335, 4-(4-{[2-(4-chlorophenyl)-4,4-dimethylcyclohex-1-en-1-yl]methyl}piperazin-1-yl)-2-(1H-indol-5-yloxy)-N-[(4-{[1-(methylsulfonyl)piperidin-4-yl]amino}-3-nitrophenyl)sulfonyl]benzamide]
- Ki [1]: 0.438 nM
- Ki [2]: > 660 nM
- EC50 [3]: 39 nM

SMILES: CC1(C)CCC(CN2CCN(c3ccc(C(=O)NS(=O)(=O)c4ccc(NCCN5CCNC(=O)C5)c([N+](=O)[O-])c4)c(Oc4cccc5[nH]ccc45)c3)CC2)=C(c2ccc(Cl)cc2)C1 [Example 280, 4-(4-{[2-(4-chlorophenyl)-4,4-dimethylcyclohex-1-en-1-yl]methyl}piperazin-1-yl)-2-(1H-indol-4-yloxy)-N-[(3-nitro-4-{[2-(3-oxopiperazin-1-yl)ethyl]amino}phenyl)sulfonyl]benzamide]
- Ki [1]: 0.178 nM
- Ki [2]: 195 nM
- EC50 [3]: 247 nM

SMILES: CC1(C)CCC(CN2CCN(c3ccc(C(=O)NS(=O)(=O)c4ccc(NCCOC(F)(F)F)c([N+](=O)[O-])c4)c(Oc4cccc5[nH]ccc45)c3)CC2)=C(c2ccc(Cl)cc2)C1 [Example 292, 4-(4-{[2-(4-chlorophenyl)-4,4-dimethylcyclohex-1-en-1-yl]methyl}piperazin-1-yl)-2-(1H-indol-4-yloxy)-N-[(3-nitro-4-{[2-(trifluoromethoxy)ethyl]amino}phenyl)sulfonyl]benzamide]
- Ki [1]: 0.598 nM
- Ki [2]: > 660 nM
- EC50 [3]: 69.2 nM
